Drawing on US12673961B2 (Agios Pharmaceuticals, Inc., priority 2022, dated 2026), this text covers AC50 for 19 molecules.

The target of this test is T1, human PAH with the R408W mutation (Homo sapiens, UniProt P00439, R408W).
T1 construct: expressed in transfected cells
T1 sequence (P00439 1-452 R408W): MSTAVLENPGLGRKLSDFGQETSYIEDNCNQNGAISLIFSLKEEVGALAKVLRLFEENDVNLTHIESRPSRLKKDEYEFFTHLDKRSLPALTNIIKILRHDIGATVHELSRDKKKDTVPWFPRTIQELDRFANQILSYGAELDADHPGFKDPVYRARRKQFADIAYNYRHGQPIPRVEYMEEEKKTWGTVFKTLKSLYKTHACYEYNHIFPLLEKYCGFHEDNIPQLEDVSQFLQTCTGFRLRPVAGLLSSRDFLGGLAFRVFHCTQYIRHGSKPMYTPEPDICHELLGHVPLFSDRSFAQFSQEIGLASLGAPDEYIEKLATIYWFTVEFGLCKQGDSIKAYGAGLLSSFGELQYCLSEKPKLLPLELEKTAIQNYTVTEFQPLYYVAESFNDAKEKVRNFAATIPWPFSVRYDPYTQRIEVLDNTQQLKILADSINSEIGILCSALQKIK
Put plainly: Cell Based Phenylalanine Flux Assay.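 Note: Ten-point dose curve from 2-fold serial dilutions, run in duplicate at 0.5% DMSO final, tracer step used 20 µM sepiapterin and 800 µM labeled phenylalanine.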 Conditions: A375 cells expressing human R408W PAH; 24 hrs with compound, then sepiapterin and 13C9,15N-Phenylalanine for 4 hours; 13C-Tyrosine by LC-MS; average where tested multiple times; read-out: AC50.
As to `Cc1cccc(-c2nnc(C(=O)N3CCc4[nH]cnc4[C@@H]3c3cc4c(C)cccn4n3)o2)n1` [Example 1428, (R)-(4-(4-methylpyrazolo [1,5-a]pyridin-2-yl)-6,7-dihydro-1H-imidazo[4,5-c]pyridin-5(4H)-yl)(5-(6-methylpyridin-2-yl)-1,3,4-oxadiazol-2-yl)methanone], the concentration at half-maximal activity (AC50) – broadly, the concentration giving half of the maximal activity seen – was over 5000 nM.

As to `Cc1cccc(-c2nnc(C(=O)N3CCc4[nH]cnc4[C@H]3c3cc4c(C)cccn4n3)o2)n1` [Example 1429, (S)-(4-(4-methylpyrazolo [1,5-a]pyridin-2-yl)-6,7-dihydro-1H-imidazo[4,5-c]pyridin-5(4H)-yl)(5-(6-methylpyridin-2-yl)-1,3,4-oxadiazol-2-yl)methanone], the AC50 is under 500 nM.

For the molecule `Cc1cccc(-c2nnc(C(=O)N3CCc4[nH]cnc4[C@H]3c3cc4c(Cl)cccn4n3)o2)n1` [Example 1431, (S)-(4-(4-chloropyrazolo [1,5-a]pyridin-2-yl)-6,7-dihydro-1H-imidazo[4,5-c]pyridin-5(4H)-yl)(5-(6-methylpyridin-2-yl)-1,3,4-oxadiazol-2-yl)methanone], the AC50 was under 500 nM.

Take `Cc1cccc(-c2nnc(C(=O)N3CCc4[nH]cnc4[C@H]3c3cc4c(C(F)(F)F)cccn4n3)o2)n1` [Example 1433, (S)-(5-(6-methylpyridin-2-yl)-1,3,4-oxadiazol-2-yl)(4-(4-(trifluoromethyl)pyrazolo [1,5-a]pyridin-2-yl)-6,7-dihydro-1H-imidazo[4,5-c]pyridin-5(4H)-yl)methanone]: the AC50 is under 500 nM.

Turning to `Cn1ccc(-c2ccc3c(C(=O)N4CCc5[nH]cnc5[C@H]4c4cc5ccccn5n4)cnn3c2)n1` [Example 1434, (S)-(6-(1-methyl-1H-pyrazol-3-yl)pyrazolo[1,5-a]pyridin-3-yl)(4-(pyrazolo [1,5-a]pyridin-2-yl)-6,7-dihydro-1H-imidazo[4,5-c]pyridin-5(4H)-yl)methanone], the AC50 was in the range of 500 to 1000 nM.

Regarding `Cn1ccc(-c2ccc3c(C(=O)N4CCc5[nH]cnc5[C@@H]4c4cc5ccccn5n4)cnn3c2)n1` [Example 1435, (R)-(6-(1-methyl-1H-pyrazol-3-yl)pyrazolo[1,5-a]pyridin-3-yl)(4-(pyrazolo [1,5-a]pyridin-2-yl)-6,7-dihydro-1H-imidazo[4,5-c]pyridin-5(4H)-yl)methanone], the AC50 fell in the range of 1000 to 5000 nM.

As for `CC(C)(F)c1nnc(C(=O)N2CCc3[nH]cnc3[C@H]2c2cc3cccc(C(F)F)n3n2)o1` [Example 1436, (S)-(4-(7-(difluoromethyl)pyrazolo[1,5-a]pyridin-2-yl)-6,7-dihydro-1H-imidazo[4,5-c]pyridin-5(4H)-yl)(5-(2-fluoropropan-2-yl)-1,3,4-oxadiazol-2-yl)methanone], the AC50 lay within 500 to 1000 nM.

Turning to `CC(C)(F)c1nnc(C(=O)N2CCc3[nH]cnc3[C@@H]2c2cc3cccc(C(F)F)n3n2)o1` [Example 1437, (R)-(4-(7-(difluoromethyl)pyrazolo[1,5-a]pyridin-2-yl)-6,7-dihydro-1H-imidazo[4,5-c]pyridin-5(4H)-yl)(5-(2-fluoropropan-2-yl)-1,3,4-oxadiazol-2-yl)methanone], the AC50 is 1000 to 5000 nM.

Turning to `O=C(c1nnc(-c2ccn(C(F)F)n2)o1)N1CCc2[nH]cnc2[C@@H]1c1cc2cccc(C(F)F)n2n1` [Example 1443, (R)-(5-(1-(difluoromethyl)-1H-pyrazol-3-yl)-1,3,4-oxadiazol-2-yl)(4-(7-(difluoromethyl)pyrazolo[1,5-a]pyridin-2-yl)-6,7-dihydro-1H-imidazo[4,5-c]pyridin-5(4H)-yl)methanone], the AC50 fell in the range of 1000 to 5000 nM.

Take `Cc1cccc2cc([C@@H]3c4nc[nH]c4CCN3C(=O)c3nnc(-c4cnn(C(F)(F)F)c4)o3)nn12` [Example 1446, (S)-(4-(7-methylpyrazolo [1,5-a]pyridin-2-yl)-6,7-dihydro-1H-imidazo[4,5-c]pyridin-5(4H)-yl)(5-(1-(trifluoromethyl)-1H-pyrazol-4-yl)-1,3,4-oxadiazol-2-yl)methanone]: the AC50 was in the range of 500 to 1000 nM.

In the case of `CC(C)c1nnc(C(=O)N2CCc3[nH]cnc3[C@@H]2c2cc3c(F)cccn3n2)o1` [Example 1453, (R)-(4-(4-fluoropyrazolo [1,5-a]pyridin-2-yl)-6,7-dihydro-1H-imidazo[4,5-c]pyridin-5(4H)-yl)(5-isopropyl-1,3,4-oxadiazol-2-yl)methanone], the AC50 is over 5000 nM.

As to `Cc1nn(C)cc1-c1nnc(C(=O)N2CCc3[nH]cnc3[C@H]2c2cc3c(C(F)F)cccn3n2)o1` [Example 1466, (S)-(4-(4-(difluoromethyl)pyrazolo[1,5-a]pyridin-2-yl)-6,7-dihydro-1H-imidazo[4,5-c]pyridin-5(4H)-yl)(5-(1,3-dimethyl-1H-pyrazol-4-yl)-1,3,4-oxadiazol-2-yl)methanone], the AC50 is under 500 nM.

Take `Cc1cccc(-c2nnc(C(=O)N3CCc4[nH]cnc4[C@@H]3c3cc4c(F)cccn4n3)o2)n1` [Example 1471, (R)-(4-(4-fluoropyrazolo [1,5-a]pyridin-2-yl)-6,7-dihydro-1H-imidazo[4,5-c]pyridin-5(4H)-yl)(5-(6-methylpyridin-2-yl)-1,3,4-oxadiazol-2-yl)methanone]: the AC50 was 1000 to 5000 nM.

As to `O=C(c1nnc(-c2ccn(C(F)(F)F)n2)o1)N1CCc2[nH]cnc2[C@H]1c1cc2c(Cl)cccn2n1` [Example 1476, (S)-(4-(4-chloropyrazolo [1,5-a]pyridin-2-yl)-6,7-dihydro-1H-imidazo[4,5-c]pyridin-5(4H)-yl)(5-(1-(trifluoromethyl)-1H-pyrazol-3-yl)-1,3,4-oxadiazol-2-yl)methanone], the half-maximal activity concentration (AC50) is under 500 nM.

Consider `Cc1cccn2nc([C@H]3c4nc[nH]c4CCN3C(=O)c3nnc(-c4ccn(C(F)(F)F)n4)o3)cc12` [Example 1479, (R)-(4-(4-methylpyrazolo [1,5-a]pyridin-2-yl)-6,7-dihydro-1H-imidazo[4,5-c]pyridin-5(4H)-yl)(5-(1-(trifluoromethyl)-1H-pyrazol-3-yl)-1,3,4-oxadiazol-2-yl)methanone], for which the AC50 was in the range of 1000 to 5000 nM.

Take `O=C(c1nnc(-c2ccn(C(F)(F)F)n2)o1)N1CCc2[nH]cnc2[C@H]1c1cc2c(F)cccn2n1` [Example 1482, (S)-(4-(4-fluoropyrazolo[1,5-a]pyridin-2-yl)-6,7-dihydro-1H-imidazo[4,5-c]pyridin-5(4H)-yl)(5-(1-(trifluoromethyl)-1H-pyrazol-3-yl)-1,3,4-oxadiazol-2-yl)methanone]: the AC50 is under 500 nM.

Take `O=C(c1nnc(-c2ccn(C(F)(F)F)n2)o1)N1CCc2[nH]cnc2[C@@H]1c1cc2c(F)cccn2n1` [Example 1483, (R)-(4-(4-fluoropyrazolo [1,5-a]pyridin-2-yl)-6,7-dihydro-1H-imidazo[4,5-c]pyridin-5(4H)-yl)(5-(1-(trifluoromethyl)-1H-pyrazol-3-yl)-1,3,4-oxadiazol-2-yl)methanone]: the concentration at half-maximal activity (AC50) was in the range of 1000 to 5000 nM.

`CC(C)c1nnc(C(=O)N2CCc3[nH]cnc3[C@H]2c2cc3c(Cl)cccn3n2)o1` [Example 1484, (S)-(4-(4-chloropyrazolo [1,5-a]pyridin-2-yl)-6,7-dihydro-1H-imidazo[4,5-c]pyridin-5(4H)-yl)(5-isopropyl-1,3,4-oxadiazol-2-yl)methanone]: the half-maximal activity concentration (AC50) was under 500 nM.

Turning to `CC(C)c1nnc(C(=O)N2CCc3[nH]cnc3[C@@H]2c2cc3cccc(Cl)n3n2)o1` [Example 1489, (R)-(4-(7-chloropyrazolo [1,5-a]pyridin-2-yl)-6,7-dihydro-1H-imidazo[4,5-c]pyridin-5(4H)-yl)(5-isopropyl-1,3,4-oxadiazol-2-yl)methanone], the concentration at half-maximal activity (AC50) fell in the range of 1000 to 5000 nM.
